From US20060069132A1, “Azolecarboxamide herbicides” (priority 2004, published 2006)
Read-outs that look alike come from different tables or passages of the source.

What was measured:
Surinam grass = test: Test B pre-/postemergence herbicide test; format: in vivo, Urochloa decumbens
Method in brief: (§1)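 Formulation: non-phytotoxic solvent mix with surfactant. Timing: preemergence on seed and postemergence on 2–18 cm plants, applied concurrently. Readout after 13–15 d greenhouse: visual 0–100 control rating against controls.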

giant foxtail = test: Test B pre-/postemergence herbicide test; format: in vivo, Setaria faberi
Method in brief: as §1

wild oat = test: Test B postemergence herbicide test; format: in vivo, Avena fatua; conditions: scale 0 (no effect) to 100 (complete control); for Plant response rating, Oat, Wild: 500 g ai/ha, visual rating after 13 to 15 days
Method in brief: (§2)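 Greenhouse test; postemergence application to plants at 1–4 leaves (2–18 cm); paddy species at 2 leaves; evaluated visually vs controls at 13–15 days; scale 0–100 (100 = complete control).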

ducksalad = test: Test B flooded paddy test; format: in vivo, Heteranthera limosa; conditions: 1000 g ai/ha, visual rating, scale 0 to 100 (0 no effect, 100 complete control), 13 to 15 days
Method in brief: as §2

[1] = system: small flower umbrella sedge; test: Test B flooded paddy test; format: in vivo, Cyperus difformis; conditions: 1000 g ai/ha, visual rating, scale 0 to 100 (0 no effect, 100 complete control), 13 to 15 days
Method in brief: as §2

cocklebur = test: Test B pre-/postemergence herbicide test; format: in vivo, Xanthium strumarium
Method in brief: (§3)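 Greenhouse pot assay with simultaneous preemergence (treated seed) and postemergence (2–18 cm seedlings) applications of surfactant-containing, non-phytotoxic solvent formulations. Response scored visually 13–15 days later on a 0–100 scale, 100 meaning complete control.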

large crabgrass = test: Test B pre-/postemergence herbicide test; format: in vivo, Digitaria sanguinalis
Method in brief: as §1

barnyardgrass = test: Test B pre-/postemergence herbicide test; format: in vivo, Echinochloa crus-galli
Method in brief: as §3

blackgrass = test: Test B postemergence herbicide test; format: in vivo, Alopecurus myosuroides; conditions: scale 0 (no effect) to 100 (complete control); for Plant response rating, Blackgrass: 500 g ai/ha, visual rating after 13 to 15 days
Method in brief: as §2

pigweed = test: Test B pre-/postemergence herbicide test; format: in vivo, Amaranthus retroflexus
Method in brief: as §1

corn = test: Test B pre-/postemergence herbicide test; format: in vivo, Zea mays
Method in brief: as §1

velvetleaf = test: Test B pre-/postemergence herbicide test; format: in vivo, Abutilon theophrasti
Method in brief: as §1

wheat = test: Test B postemergence herbicide test; format: in vivo, Triticum aestivum; design: key to Wheat plant response rating: 0 = no effect, 100 = complete control; conditions: scale 0 (no effect) to 100 (complete control); for Plant response rating, Wheat: 500 g ai/ha, visual rating after 13 to 15 days
Method in brief: as §2

lambsquarters = test: Test B pre-/postemergence herbicide test; format: in vivo, Chenopodium album
Method in brief: as §1

rice = test: Test B flooded paddy test; format: in vivo, Oryza sativa; conditions: 1000 g ai/ha, visual rating, scale 0 to 100 (0 no effect, 100 complete control), 13 to 15 days
Method in brief: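 Scale 0–100: zero equals no visible effect, 100 complete control, judged by eye relative to controls. Timing: 13 to 15 days in greenhouse post-treatment. Growth stage at spraying: two leaves (paddy) or one to four leaves, 2–18 cm (postemergence).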

[2] = Postemergence, 500 g ai/ha, visual rating after 13 to 15 days, scale 0 (no effect) to 100 (complete control)
[3] = postemergence, 125 g ai/ha, visual rating, scale 0 (no effect) to 100 (complete control)
[4] = preemergence, 125 g ai/ha, 0 to 100 scale, 0 is no effect, 100 is complete control
[5] = Preemergence, 500 g ai/ha, scale 0 to 100
[6] = postemergence, 125 g ai/ha, visual rating

CCn1nc(C(C)(C)C)cc1C(=O)Nc1cc(C(=O)N(C)C)ccc1F [Compound 6, N-[5-[(dimethylamino)carbonyl]-2-fluorophenyl]-3-(1,1-dimethylethyl)-1-ethyl-1H-pyrazole-5-carboxamide]
pest or weed control at 125 g/ha (Surinam grass; Urochloa decumbens, post-emergence, Postemergence, 125 g ai/ha, scale 0 (no effect) to 100 (complete control), read-out: Surinam Grass plant response rating): 10%
pest or weed control at 500 g/ha (Surinam grass; Urochloa decumbens, post-emergence, Postemergence, 500 g ai/ha, visual rating after 13 to 15 days, scale 0 (no effect) to 100 (complete control), read-out: Plant response rating, Surinam Grass): 60%
pest or weed control at 500 g/ha (Surinam grass; Urochloa decumbens, pre-emergence, Preemergence, 500 g ai/ha, scale 0 to 100, read-out: Surinam Grass plant response rating): 100%
pest or weed control at 125 g/ha (giant foxtail; Setaria faberi, post-emergence, 336 h, Postemergence, 125 g ai/ha, scale 0 (no effect) to 100 (complete control), read-out: Foxtail, Giant plant response rating): 10%
pest or weed control at 500 g/ha (giant foxtail; Setaria faberi, post-emergence, 336 h, Postemergence, 500 g ai/ha, visual rating after 13 to 15 days, scale 0 (no effect) to 100 (complete control), read-out: Plant response rating, Foxtail, Giant): 20%
pest or weed control at 500 g/ha (giant foxtail; Setaria faberi, pre-emergence, 336 h, Preemergence, 500 g ai/ha, scale 0 to 100, read-out: Foxtail, Giant plant response rating): 100%
pest or weed control at 125 g/ha (wild oat; Avena fatua, post-emergence, 336 h, Postemergence, 125 g ai/ha, read-out: Oat, Wild plant response rating): 10%
Plant response rating, Oat, Wild (wild oat; Postemergence): 70
pest or weed control at 1000 g/ha (ducksalad; Heteranthera limosa, 336 h, read-out: Ducksalad plant response rating): 90%
pest or weed control at 1000 g/ha ([1]; Cyperus difformis, 336 h, read-out: Sedge, Umbrella plant response rating): 90%
pest or weed control at 125 g/ha (cocklebur; Xanthium strumarium, post-emergence, Postemergence, 125 g ai/ha, scale 0 (no effect) to 100 (complete control), read-out: Cocklebur plant response rating): 0%
pest or weed control at 500 g/ha (cocklebur; Xanthium strumarium, post-emergence, Postemergence, 500 g ai/ha, visual rating after 13 to 15 days, scale 0 (no effect) to 100 (complete control), read-out: Plant response rating, Cocklebur): 80%
pest or weed control at 500 g/ha (cocklebur; Xanthium strumarium, pre-emergence, Preemergence, 500 g ai/ha, scale 0 to 100, read-out: Cocklebur plant response rating): 100%
pest or weed control at 125 g/ha (large crabgrass; Digitaria sanguinalis, post-emergence, Postemergence, 125 g ai/ha, scale 0 (no effect) to 100 (complete control), read-out: Crabgrass, Large plant response rating): 20%
pest or weed control at 500 g/ha (large crabgrass; Digitaria sanguinalis, post-emergence, Postemergence, 500 g ai/ha, visual rating after 13 to 15 days, scale 0 (no effect) to 100 (complete control), read-out: Plant response rating, Crabgrass, Large): 30%
pest or weed control at 500 g/ha (large crabgrass; Digitaria sanguinalis, pre-emergence, Preemergence, 500 g ai/ha, scale 0 to 100, read-out: Crabgrass, Large plant response rating): 100%
pest or weed control at 125 g/ha (barnyardgrass; Echinochloa crus-galli, post-emergence, Postemergence, 125 g ai/ha, scale 0 (no effect) to 100 (complete control), read-out: Barnyardgrass plant response rating): 0%
pest or weed control at 500 g/ha (barnyardgrass; Echinochloa crus-galli, post-emergence, Postemergence, 500 g ai/ha, visual rating after 13 to 15 days, scale 0 (no effect) to 100 (complete control), read-out: Plant response rating, Barnyardgrass): 80%
pest or weed control at 500 g/ha (barnyardgrass; Echinochloa crus-galli, pre-emergence, Preemergence, 500 g ai/ha, scale 0 to 100, read-out: Barnyardgrass plant response rating): 100%
pest or weed control at 125 g/ha (blackgrass; Alopecurus myosuroides, post-emergence, 336 h, Postemergence, 125 g ai/ha, read-out: Blackgrass plant response rating): 20%
Plant response rating, Blackgrass (blackgrass; Postemergence): 90
pest or weed control at 125 g/ha (pigweed; Amaranthus retroflexus, post-emergence, 336 h, Postemergence, 125 g ai/ha, scale 0 (no effect) to 100 (complete control), read-out: Pigweed plant response rating): 20%
pest or weed control at 500 g/ha (pigweed; Amaranthus retroflexus, post-emergence, 336 h, Postemergence, 500 g ai/ha, visual rating after 13 to 15 days, scale 0 (no effect) to 100 (complete control), read-out: Plant response rating, Pigweed): 70%
pest or weed control at 500 g/ha (pigweed; Amaranthus retroflexus, pre-emergence, 336 h, Preemergence, 500 g ai/ha, scale 0 to 100, read-out: Pigweed plant response rating): 100%
plant injury at 125 g/ha (corn; Zea mays, post-emergence, Postemergence, 125 g ai/ha, scale 0 (no effect) to 100 (complete control), read-out: Corn plant response rating): 0%
Corn plant response rating (crop injury, 0 = no effect, 100 = complete kill) at 500 g/ha (corn; Zea mays, post-emergence, Postemergence, 500 g ai/ha, visual rating after 13 to 15 days, scale 0 (no effect) to 100 (complete control)): 60%
plant injury at 500 g/ha (corn; Zea mays, pre-emergence, Preemergence, 500 g ai/ha, scale 0 to 100, read-out: Corn plant response rating): 90%
pest or weed control at 125 g/ha (velvetleaf; Abutilon theophrasti, post-emergence, 336 h, Postemergence, 125 g ai/ha, scale 0 (no effect) to 100 (complete control), read-out: Velvetleaf plant response rating): 0%
pest or weed control at 500 g/ha (velvetleaf; Abutilon theophrasti, post-emergence, 336 h, Postemergence, 500 g ai/ha, visual rating after 13 to 15 days, scale 0 (no effect) to 100 (complete control), read-out: Plant response rating, Velvetleaf): 60%
pest or weed control at 500 g/ha (velvetleaf; Abutilon theophrasti, pre-emergence, 336 h, Preemergence, 500 g ai/ha, scale 0 to 100, read-out: Velvetleaf plant response rating): 100%
Plant response rating, Wheat (wheat; Postemergence): 40
plant injury at 125 g/ha (wheat; Triticum aestivum, post-emergence, 336 h, Postemergence, 125 g ai/ha, read-out: Wheat plant response rating): 0%
pest or weed control at 125 g/ha (lambsquarters; Chenopodium album, post-emergence, 336 h, Postemergence, 125 g ai/ha, scale 0 (no effect) to 100 (complete control), read-out: Lambsquarters plant response rating): 30%
pest or weed control at 500 g/ha (lambsquarters; Chenopodium album, post-emergence, 336 h, Postemergence, 500 g ai/ha, visual rating after 13 to 15 days, scale 0 (no effect) to 100 (complete control), read-out: Plant response rating, Lambsquarters): 100%
pest or weed control at 500 g/ha (lambsquarters; Chenopodium album, pre-emergence, 336 h, Preemergence, 500 g ai/ha, scale 0 to 100, read-out: Lambsquarters plant response rating): 100%
plant injury at 1000 g/ha (rice; Oryza sativa, 336 h, read-out: Rice plant response rating): 80%

C=CCOC(=O)c1cccc(NC(=O)c2cc(C(C)(C)C)nn2CC)c1 [Compound 85]
Plant response rating, Surinam Grass (Surinam grass; [2]): 70
Surinam Grass plant response rating (Surinam grass; [3]): 60
Plant response rating, Surinam Grass (Surinam grass; [4]): 0
Plant response rating, Foxtail, Giant (giant foxtail; [2]): 50
Foxtail, Giant plant response rating (giant foxtail; [5]): 0
Foxtail, Giant plant response rating (giant foxtail; [3]): 20
Plant response rating, Foxtail, Giant (giant foxtail; [4]): 0
Plant response rating, Oat, Wild (wild oat; Postemergence): 50
Oat, Wild plant response rating (wild oat; [6]): 20
Ducksalad plant response rating (ducksalad): 20
Sedge, Umbrella plant response rating [1]: 60
Plant response rating, Cocklebur (cocklebur; [2]): 100
Cocklebur plant response rating (cocklebur; [5]): 0
Cocklebur plant response rating (cocklebur; [3]): 90
Plant response rating, Cocklebur (cocklebur; [4]): 0
Plant response rating, Crabgrass, Large (large crabgrass; [2]): 80
Crabgrass, Large plant response rating (large crabgrass; [5]): 0
Crabgrass, Large plant response rating (large crabgrass; [3]): 50
Plant response rating, Crabgrass, Large (large crabgrass; [4]): 0
Plant response rating, Barnyardgrass (barnyardgrass; [2]): 80
Barnyardgrass plant response rating (barnyardgrass; [5]): 0
Barnyardgrass plant response rating (barnyardgrass; [3]): 60
Plant response rating, Barnyardgrass (barnyardgrass; [4]): 0
Plant response rating, Blackgrass (blackgrass; Postemergence): 20
Blackgrass plant response rating (blackgrass; [6]): 10
Plant response rating, Pigweed (pigweed; [2]): 100
Pigweed plant response rating (pigweed; [3]): 100
Plant response rating, Pigweed (pigweed; [4]): 0
Plant response rating, Corn (corn; [2]): 30
Corn plant response rating (corn; [5]): 0
Corn plant response rating (corn; [3]): 20
Plant response rating, Corn (corn; [4]): 0
Plant response rating, Velvetleaf (velvetleaf; [2]): 80
Velvetleaf plant response rating (velvetleaf; [3]): 60
Plant response rating, Velvetleaf (velvetleaf; [4]): 0
Plant response rating, Wheat (wheat; Postemergence): 60
Wheat plant response rating (wheat; [6]): 50
Plant response rating, Lambsquarters (lambsquarters; [2]): 60
Lambsquarters plant response rating (lambsquarters; [3]): 50
Plant response rating, Lambsquarters (lambsquarters; [4]): 0
Rice plant response rating (rice): 40
